From patent US11878045B2, “Inducing cell death by hyperactivation of motility networks” (The Johns Hopkins University, priority 2016, dated 2024)
Entries after “also recorded” stand apart in the source; their conditions may differ.

Key:
[1] = test system: Dictyostelium pten− cells; conditions: for cytotoxicity for Dictyostelium pten− cells: 5 μM statin, three day period (17, 41, 65 hours); for time after drug treatment at which cell death started to occur: pten− cells; for growth of pten− cells compared to DMSO control: three day period
Description: Cells were treated with 5 μM fluvastatin or DMSO. Images were taken 17 hours (left), 41 hours (middle), and 65 hours (right) after drug treatment.
Seven statins currently available on the market were tested for cytotoxicity on pten− cells. The graph quantifies growth of cells treated with 5 μM of statins or DMSO control over a three day period. Blue, orange, and yellow bars represent relative cell counts 17 hours, 41 hours, and 65 hours after drug treatment.
Statins are inhibitors of HMG-CoA reductase, the rate-controlling enzyme of the mevalonate pathway.

[2] = test system: Dictyostelium pten− cells; test: Phenotypic screen of the Johns Hopkins drug library on growth of pten− cells; format: cell-based; conditions: hits validated independently with purchased compounds
Text: (§1) FIG. 7 is a diagram showing the process of drug library screen. […] Secondary screen confirmed nine compounds with effects selective for pten− but not wild-type cells.
(§2) The John Hopkins Drug Library contains 2560 drugs that are either FDA approved, have been proven in other countries for treating human diseases, or have entered phase II clinical trials. […] These compounds fell into several classes: certain phenothiazines (promazine, chlorpromazine, and thioridazine), certain antibiotics (polymyxin and chloroxine), certain statins (fluvastatin and pitavastatin), and others (benfluorex and phenazopyridine). All of the hits were validated independently with purchased compounds and repeating the experiments.

wild type cells [3] = test: Phenotypic screen of the Johns Hopkins drug library, wild-type counter-screen; format: cell-based, Dictyostelium; conditions: library screen hits
Text: as §1, §2

wild type cells [4] = test: Statin growth test on wild type cells; format: cell-based, Dictyostelium
Description: Cells were treated with 5 μM fluvastatin or DMSO.

[5] = test system: MCF-10A with homozygous pten deletion (pten−/−); test: Growth of mammary epithelial cells with homozygous pten deletion under compound treatment; format: cell-based, human; conditions: 5 μM
Description: (§3) MCF-10A or pten−/− cells were treated with DMSO control or 5 μM pitavastatin. Upper and lower panels show 44 hours and 68 hours after drug treatment.
(§4) Cells were treated with DMSO control or 5 μM drugs. Blue, orange, and yellow bars represent 20 hours, 44 hours, and 68 hours after drug treatment.
(§5) To test whether the hits from the drug screen targeted human pre-metastatic cells, the growth of the human mammary epithelial cell lines MCF-10A, MCF-10A with homozygous pten deletion (pten−/−), or MCF10-A harboring oncogenic PIK3CA mutations under compound treatment were measured.

[6] = test system: MCF10-A harboring oncogenic PIK3CA mutations; test: Growth of mammary epithelial cells with oncogenic PIK3CA mutations under compound treatment; format: cell-based, human; conditions: 5 μM
Description: as §5

MCF-10A cells = test: Growth of parental mammary epithelial cells under compound treatment; format: cell-based, human; conditions: 5 μM
Description: as §3, §4, §5

pten−/− cells = test: Add-back experiments (MVA, GGPP, cholesterol) with pitavastatin; format: cell-based, human

Compound | cytotoxicity for Dictyostelium pten− cells [1] | effect on growth or survival of pten− cells in the library screen [2] | effect on morphology and growth of wild type cells (wild type cells [3]) | further results
CC(C)c1c(C(=O)Nc2ccccc2)c(-c2ccccc2)c(-c2ccc(F)cc2)n1CC[C@@H](O)C[C@@H](O)CC(=O)O [atorvastatin] | well tolerated |  |  | 
CC(Cc1cccc(C(F)(F)F)c1)NCCOC(=O)c1ccccc1 (stereo not drawn) [benfluorex] |  | selectively slow down the growth of or kill pten− cells | little or no effect | 
Oc1c(Cl)cc(Cl)c2cccnc12 [chloroxine] |  | selectively slow down the growth of or kill pten− cells | little or no effect | 
CN(C)CCCN1c2ccccc2Sc2ccc(Cl)cc21 [chlorpromazine] |  | selectively slow down the growth of or kill pten− cells | little or no effect | 
CC(C)n1c(/C=C/C(O)CC(O)CC(=O)O)c(-c2ccc(F)cc2)c2ccccc21 (stereo not drawn) [fluvastatin] | high cytotoxicity; also recorded: higher efficacy compared to all other statins | selectively slow down the growth of or kill pten− cells | little or no effect | growth and survival of Dictyostelium pten− cells (FIG. 8) ([1]; 5 μM, images 17, 41 and 65 hours after treatment): selectively affected the growth and survival; time after drug treatment at which cell death started to occur [1]: around 40 hours; growth of pten− cells compared to DMSO control [1]: grew much slower; growth of wild type cells treated with the statins (wild type cells [4]): no significant growth defect
CC[C@H](C)C(=O)O[C@H]1C[C@@H](C)C=C2C=C[C@H](C)[C@H](CC[C@@H]3C[C@@H](O)CC(=O)O3)[C@H]21 [lovastatin] | well tolerated |  |  | 
Nc1ccc(/N=N/c2ccccc2)c(N)n1 [phenazopyridine] |  | selectively slow down the growth of or kill pten− cells | little or no effect | 
O=C(O)C[C@H](O)C[C@H](O)/C=C/c1c(C2CC2)nc2ccccc2c1-c1ccc(F)cc1 [pitavastatin] | high cytotoxicity; also recorded: higher efficacy compared to all other statins | selectively slow down the growth of or kill pten− cells | little or no effect | time after drug treatment at which cell death started to occur [1]: around 40 hours; growth of pten− cells compared to DMSO control [1]: grew much slower; growth of wild type cells treated with the statins (wild type cells [4]): no significant growth defect; cell growth of MCF-10A pten−/− cells ([5]; 20, 44, 68 hours): selectively inhibited the growth and survival; also recorded: marked reduction in cell growth; cell death in MCF-10A pten−/− cells ([5]; 44 and 68 hours): cell death induced; also recorded: extensive cell death; cell death in PIK3CA knock-in cells [6]: extensive cell death; cell growth of PIK3CA knock-in cells [6]: marked reduction in cell growth; reduction in cell growth and cell death in parental MCF-10A cells (MCF-10A cells): not MCF-10A cells; effects of pitavastatin with supplementation of cholesterol (pten−/− cells): not cholesterol; effects of pitavastatin with supplementation of GGPP (pten−/− cells; increasing doses of pitavastatin, with or without GGPP): blocked the toxic effects; also recorded: completely blocked; effects of pitavastatin with supplementation of mevalonic acid (MVA) (pten−/− cells; increasing doses of pitavastatin, with or without MVA): blocked the toxic effects; also recorded: completely blocked
CC[C@H](C)C(=O)O[C@H]1C[C@H](O)C=C2C=C[C@H](C)[C@H](CC[C@@H](O)C[C@@H](O)CC(=O)O)[C@H]21 [pravastatin] | well tolerated |  |  | 
CN(C)CCCN1c2ccccc2Sc2ccccc21 [promazine] |  | selectively slow down the growth of or kill pten− cells | little or no effect | 
CC(C)c1nc(N(C)S(C)(=O)=O)nc(-c2ccc(F)cc2)c1/C=C/[C@@H](O)C[C@@H](O)CC(=O)O [rosuvastatin] | well tolerated |  |  | 
CSc1ccc2c(c1)N(CCC1CCCCN1C)c1ccccc1S2 (stereo not drawn) [thioridazine] |  | selectively slow down the growth of or kill pten− cells | little or no effect | 
polymyxin |  | selectively slow down the growth of or kill pten− cells | little or no effect | 
